Consider six compounds from the supplement of paper PMC11061612.

Test [1] relates to EJM (Plasma Cell Myeloma). Put plainly: Bliss excess, mean over the matrix (fraction); higher = more synergy. The method in brief: (§1)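 After 24 hours at 37°C and 5% CO2 in 1536-well plates, cells in DMEM/F12 or RPMI plus 10% FBS received two-drug dose matrices for 72 hours. Viability came from CellTiter-Glo 2.0 luminescence and was scaled as inhibition, anchored at 0 by vehicle wells and at 1 by blank wells. Combination Emax is taken as the second-highest inhibition in the matrix, and Bliss excess as the observed combination effect less EA + EB − EA·EB, with EA and EB the single-agent effects.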

For test [2], the system named is G-401 (Other Solid Carcinomas). Described as above. The method in brief:
as §1

In test [3] the test system is HCC1500 (Breast Carcinoma). The test is described as above. The method in brief:
as §1

In test [4] the test system is Hey (Ovarian Carcinoma). Described as above. The method in brief: as §1
Test [5] has as its system KOPN-8 (B-Lymphoblastic Leukemia). Described as above. An outline of the steps: as §1
The test system of test [6] is NCI-H1838 (Lung Adenocarcinoma). The test is described as above. An outline of the steps: as §1
For test [7], the system named is CADO-ES1 (Ewing's Sarcoma). Put plainly: combination Emax (second highest fraction inhibited in the dose matrix, 72 h); higher = more inhibition; extreme values may be limits of the assay. An outline of the steps:
as §1

The subject of test [8] is EJM (Plasma Cell Myeloma). Described as above. An outline of the steps:
as §1

The test system of test [9] is EW-1 (Ewing's Sarcoma). The description is as above. The method in brief: as §1
For test [10], the system named is G-401 (Other Solid Carcinomas). The description is as above. An outline of the steps: as §1
In test [11] the test system is HCC1937 (Breast Carcinoma). The test is described as above. An outline of the steps:
as §1

Test [12] relates to HCC2998 (Colorectal Carcinoma). Described as above. The method in brief:
as §1

Test [13] relates to KOPN-8 (B-Lymphoblastic Leukemia). The description is as above. The method in brief:
as §1

Test [14] concerns LC-1-sq (Squamous Cell Lung Carcinoma). The description is as above. The method in brief:
as §1

Test [15] relates to NCI-H1092 (Small Cell Lung Carcinoma). Described as above. An outline of the steps:
as §1

The subject of test [16] is NCI-H1838 (Lung Adenocarcinoma). Described as above. The method in brief:
as §1

The test system of test [17] is NCI-H2122 (Lung Adenocarcinoma). The description is as above. The method in brief: as §1
Test [18] deals with NCI-H650 (Lung Adenocarcinoma). The description is as above. An outline of the steps:
as §1

The test system of test [19] is OACM5-1 (Esophageal Adenocarcinoma). The test is described as above. The method in brief: as §1
The test system of test [20] is SK-LU-1 (Lung Adenocarcinoma). The test is described as above. An outline of the steps:
as §1
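For Bliss excess, mean over the matrix in this document: after 72 h of two-drug dosing.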

Turning to `CN(CCO)CC[C@H](CSc1ccccc1)Nc1ccc(S(=O)(=O)NC(=O)c2ccc(N3CCC([C@@H](O)c4ccccc4-c4ccc(Cl)cc4)CC3)cc2)cc1S(=O)(=O)C(F)(F)F` [AZD4320] + C1CN(CCC1(C(=O)N[C@@H](CCO)C2=CC=C(C=C2)Cl)N)C3=NC=NC4=C3C=CN4 [Capivasertib] (first compound max 1 µM, 7x7, partner max 3 µM), the Bliss excess in test [1] is -0.0272; in test [2] it was -0.0591; in test [3], -0.0178; in [4], -0.0385; in [5] it was -0.0266; in [6], -0.0392. For the same compound, the “combination Emax” value in test [7] was 0.613; in [8], 0.525; in test [9] it was 0.67; in test [10], 0.529; in test [11] it was 0.434; in test [12], 0.881. The “combination Emax” value in [13] was found to be 0.883; in test [14], 0.134; in [15], 0.813; in test [16], 0.178; in test [17] it was 0.411; in test [18] it was 0.134. The entries for the “combination Emax” value in [19] and in [20] were 0.617 and 0.267, respectively.

For `CN(CCO)CC[C@H](CSc1ccccc1)Nc1ccc(S(=O)(=O)NC(=O)c2ccc(N3CCC([C@@H](O)c4ccccc4-c4ccc(Cl)cc4)CC3)cc2)cc1S(=O)(=O)C(F)(F)F` [AZD4320] + CC(=O)O[C@H]1C(=O)[C@@]2(C)[C@H]([C@H](OC(=O)c3ccccc3)[C@]3(O)C[C@H](OC(=O)[C@H](O)[C@@H](NC(=O)c4ccccc4)c4ccccc4)C(C)=C1C3(C)C)[C@]1(OC(C)=O)CO[C@@H]1C[C@@H]2O [Paclitaxel] (first compound max 1 µM, 7x7, partner max 3 µM), in test [20], the “combination Emax” value came to 0.741.

As to `CN(CCO)CC[C@H](CSc1ccccc1)Nc1ccc(S(=O)(=O)NC(=O)c2ccc(N3CCC([C@@H](O)c4ccccc4-c4ccc(Cl)cc4)CC3)cc2)cc1S(=O)(=O)C(F)(F)F` [AZD4320] + C[C@@H](Nc1cc(F)cc(F)c1)c1cc(C(=O)N(C)C)cc2c(=O)cc(N3CCOCC3)oc12 [AZD8186] (first compound max 1 µM, 7x7, partner max 3 µM), the Bliss excess in test [1] is 0.0837; in [2], -0.101; in [3] it was 0.016; in test [4] it was -0.0027; in [5], 0.0392; in [6], 0.0139. In addition, the “combination Emax” value is 0.919 in [7]; 0.511 in test [8]; 0.924 in test [9]; 0.661 in test [10]; 0.63 in test [11]; 0.884 in [12]. The “combination Emax” value is 1 in test [13]; 0.336 in test [14]; 0.938 in [15]; 0.258 in test [16]; 0.536 in test [17]; 0.474 in [18]. Besides, the “combination Emax” value in test [19] worked out at 0.404.

For the compound `CN(CCO)CC[C@H](CSc1ccccc1)Nc1ccc(S(=O)(=O)NC(=O)c2ccc(N3CCC([C@@H](O)c4ccccc4-c4ccc(Cl)cc4)CC3)cc2)cc1S(=O)(=O)C(F)(F)F` [AZD4320] + Cn1cnc2c(F)c(Nc3ccc(Br)cc3Cl)c(C(=O)NOCCO)cc21 [Selumetinib] (first compound max 1 µM, 7x7, partner max 3 µM), the Bliss excess was 0.072 in test [1]; 0.0907 in test [2]; 0.0166 in [3]; 0.0771 in [4]; 0.0821 in test [5]; 0.0376 in test [6]. Moreover, the “combination Emax” value worked out at 0.886 in test [7]; 0.488 in test [8]; 0.921 in test [9]; 0.543 in test [10]; 0.601 in [11]; 0.992 in test [12]. For the same compound, the “combination Emax” value in test [13] was 1; in test [14], 0.485; in test [15], 0.956; in test [16], 0.209; in test [17], 0.8; in [18], 0.656. In addition, the “combination Emax” value in test [19] was 0.427.

As for `CN(CCO)CC[C@H](CSc1ccccc1)Nc1ccc(S(=O)(=O)NC(=O)c2ccc(N3CCC([C@@H](O)c4ccccc4-c4ccc(Cl)cc4)CC3)cc2)cc1S(=O)(=O)C(F)(F)F` [AZD4320] + Nc1ccn([C@@H]2O[C@H](CO)[C@@H](O)C2(F)F)c(=O)n1 [Gemcitabine] (first compound max 1 µM, 7x7, partner max 0.3 µM), the “combination Emax” value in [20] turned out to be 0.248.

With `Cc1cc2ncnn2cc1Nc1ncc2c(n1)n(C1CCOCC1)c(=O)n2C` [AZD7648] + C=CCn1c(=O)c2cnc(Nc3ccc(N4CCN(C)CC4)cc3)nc2n1-c1cccc(C(C)(C)O)n1 [AZD1775] (first compound max 10 µM, partner max 1 µM), the Bliss excess is -0.012 in test [1]; -0.0029 in test [2]; 0.0414 in test [3]; -0.0086 in [4]; -0.0472 in [5]; -0.0149 in [6]. The “combination Emax” value was determined as 0.45 in [7]; 0.893 in test [8]; 0.832 in test [9]; 0.674 in test [10]; 0.52 in test [11]; 0.628 in [12]. Also, the “combination Emax” value in [13] amounted to 0.903; in test [14], 0.91; in test [15], 0.382; in test [16], 0.569; in test [17] it was 0.766; in test [18], 0.288. The “combination Emax” value in [19] was 0.473.
